Key:
VTC-034 GSCs [1] = experiment: MTS viability, VTC-034 GSCs; format: cell-based, human; settings: VTC-034 adherent GSCs, 10, 50 or 100 μM, 4 days
Method: Cells were plated in 96-well plates (2000–5000 cells per well) and treated the following day with TMZ (10, 50, or 100 μM), antennapedia, JM2-scrambled, or JM2 (10, 50, or 100 μM). After 4 days, cell viability was monitored following addition of MTS reagent (Promega) according to manufacturer’s instructions. The absorbance at 490 nm was measured using a SpectraMax i3 or iD3 microplate reader (Molecular Devices). For the caspase 3/7 activity assay, cells were plated in 96-well plates (2000 cells per well) and treated with TMZ or peptides as described above. The activity of caspase 3/7 was measured after 48 h using the Caspase-Glo® 3/7 assay (Promega) following the manufacturer’s instructions. Fold change of caspase 3/7 activity was defined as the ratio of caspase 3/7 luminescence in treated cells compared to controls.

Notch1 = Notch1 protein expression, immunoblot, VTC-037 GSCs; format: cell-based, human; settings: 50 μM, 24 h
Method: (§1) Cells were lysed in RIPA buffer (0.1% sodium dodecyl sulphate, 50 mM Tris pH 7.4, 150 mM NaCl, 1 mM EDTA, 1% Triton X-100, 1% deoxycholic acid, 200 μM Na3VO4, and 1 mM NaF) supplemented with Halt^TM Protease and Phosphatase Inhibitor Cocktail (Thermo Fisher). Lysates were sonicated prior to centrifugation at 4 °C for 20 min at 10,000 x g. Protein concentration was quantified using the DC protein assay (Bio-Rad Laboratories) and a standard curve obtained with increasing concentrations of Bovine Serum Albumin (BSA; Fisher Scientific). Protein samples were normalized to 20 μg total protein per lane and resolved by SDS-PAGE electrophoresis. 4X Bolt LDS sample buffer supplemented with 400 mM DTT (final concentration 1X Bolt LDS with 100 mM DTT) was added to samples before heating at 70 °C for 10 min. SDS-PAGE was run using NuPAGE Bis-Tris 4%–12% gradient gels (Thermo Fisher) with MES or MOPS running buffer according to manufacturer’s instructions. Spectra™ Multicolor Protein Ladder (Thermo Fisher) or Precision Plus Protein™ Kaleidoscope™ Prestained Protein Standards (Bio-Rad Laboratories) were included as protein ladders on the same gels. […] Membranes were imaged on a ChemiDoc™ imaging system, and analyzed with Image Lab software (Bio-Rad Laboratories). […]

Cx43 [2] = experiment: Cx43 protein expression, immunoblot, VTC-037 GSCs; format: cell-based, human; settings: 50 μM, 24 h
Method: as §1

HEY1 mRNA = HEY1 mRNA by RT-qPCR, VTC-001 GSCs; format: cell-based, human; settings: 50 μM, 24 h, RT-qPCR (as worded in text; no figure panel described)
Method: RNA was extracted using the PureLink^TM RNA mini extraction kit (Thermo Fisher) and on-column DNA digestion was completed using PureLink^TM DNase according to the manufacturer’s instructions. RNA was reverse transcribed to generate cDNA using the iScript^TM Reverse Transcription SuperMix for RT-qPCR kit (Bio-Rad Laboratories). Real-time PCR was performed using the SYBR select Master Mix for CFX (Thermo Fisher) in hard-shell 96-well PCR plates (Bio-Rad Laboratories) on a CFX Connect Real Time System (Bio-Rad Laboratories). Primer sequences used were: hNOTCH1_Fwd: 5’-CGCACAAGGTGTCTTCCAG-3’; hNOTCH1_Rev: 5’-CGGCGTGTGAGTTGATGA-3’; hHES1_Fwd: 5’-GGCTGGAGAGGCGGCTAA-3’; hHES1_Rev: 5’-[…]-3’; hHEY1_Fwd: 5’-[…]-3’; hHEY1_Rev: 5’-[…]-3’.

Cx43 [3] = experiment: Cx43 protein expression, immunoblot, VTC-001 GSCs; format: cell-based, human; settings: 50 μM, 24 h
Method: as §1

VTC-034 GSCs [4] = experiment: Cellular uptake by NeutrAvidin-HRP blotting, VTC-034 GSCs; format: in vitro ADME, human
Description: JM2 peptide includes the Cx43 C-terminal amino acids 231–245 that encompass the tubulin binding sequence (VFFKGVKDRVKGRSD). A control peptide, JM2-scrambled, was generated by random re-assembly of the same residues (GSDVFKRKFVDRKVG). Both peptides contain a 16-amino acid antennapedia internalization sequence (RQPKIWFPNRRKPWKK) and are N-terminally biotinylated. Lyophilized peptides were obtained from Peptron, Inc. (South Korea) with purity > 95%, reconstituted in water or in PBS at a concentration of 10 mM, and aliquots were stored at −80 °C freezer. Reconstituted peptides were added to the cell culture medium at different concentrations for times indicated. […]
Cells were lysed in RIPA buffer (0.1% sodium dodecyl sulphate, 50 mM Tris pH 7.4, 150 mM NaCl, 1 mM EDTA, 1% Triton X-100, 1% deoxycholic acid, 200 μM Na3VO4, and 1 mM NaF) supplemented with Halt^TM Protease and Phosphatase Inhibitor Cocktail (Thermo Fisher). […] Protein concentration was quantified using the DC protein assay (Bio-Rad Laboratories) and a standard curve obtained with increasing concentrations of Bovine Serum Albumin (BSA; Fisher Scientific). […] Membranes were imaged on a ChemiDoc™ imaging system, and analyzed with Image Lab software (Bio-Rad Laboratories). […]

Question: Which “GSC survival (MTS)” value (VTC-034 GSCs [1]) does the source give for VFFKGVKDRVKGRSD [JM2] here?
Answer: significantly decreased VTC-001, VTC-034, and VTC-037 GSC survival when cultured as adherent cells in a dose-dependent manner

Question: And the Notch1 protein expression (Notch1)?
Answer: significantly decreased Notch1 expression at the protein level

Question: And the Cx43 protein expression (Cx43 [2])?
Answer: without affecting Cx43 expression

Question: What about the “Hey1 mRNA expression” value (HEY1 mRNA) of the same sequence?
Answer: significantly decreased the expression of Notch downstream targets Hes1 and Hey1 at the transcription level

Question: What about the Cx43 protein expression (Cx43 [3]) of the same sequence?
Answer: without affecting Cx43 expression

Question: And the “Cellular uptake over time” value (VTC-034 GSCs [4]; 50 μM, different times up to 48 h, NeutrAvidin-HRP blot)?
Answer: apparent after 1 h, and sustained for 24 h before JM2 signal in GSCs decreased at 48 h

Question: And the “Cellular uptake at increasing concentrations” value (VTC-034 GSCs [4]; different concentrations, 24 h, NeutrAvidin-HRP blot of biotin-tagged peptide)?
Answer: Cellular uptake of JM2 at increasing concentrations was confirmed

Source: PMC12084297, “Cytoplasmic connexin43-microtubule interactions promote glioblastoma stem-like cell maintenance and tumorigenicity” (Cell Death & Disease, 2025)
